We go through 2 compounds from US20240115881A1, “METHODS AND SYSTEMS FOR DETERMINING THE DISTRIBUTION OF RADIATION DOSE AND RESPONSE” (priority 2022, published 2024).

The test system of this assay is V79 cells. The experiment in a line: clonogenic survival after combined treatment with 210Po-citrate and a chemotherapy drug. Type of assay: cell-based, Chinese hamster. The settings on record: for effect on radiotoxicity of 210Po-citrate α-particles: 0.63 μM daunomycin or 2.50 μM doxorubicin plus graded 210Po-citrate, corrected for drug toxicity. The method, then:
^210PoCl4 in 2 mol/L HCI was obtained at 370 MBq/mL from Eckert&Ziegler Isotope Products (Valencia, CA, catalog no. 6310). ^210Po-citrate was prepared as follows. Briefly, PoCl4 solution was mixed with 1 mol/L sodium citrate in the ratio of 1:7 (final pH 5.8), and was diluted with MEMB to a volume of 4 mL (final pH 6.9). One milliliter of MEMB containing 210Po-citrate was added to the 1 mL of conditioned V79 cultures (2×10^6 cells/mL), to arrive at a concentration of 0-250 kBq/mL (pH 6.9-7.0). After incubating for 30 min, the cells were washed 2× with MEMB, resuspended in 2 mL of MEMB, and incubated on a rocker-roller for 2.5 h to simulate concomitant drug exposure. The cells were resuspended in a 5 mL of MEMB, passed 5× through a needle, and counted with a Beckman Coulter Model Z2 (Brea, CA). Aliquots (500 μL) of the cell suspension were transferred to vials, mixed with 5 mL Ecolume (MP Biomedical, Solon, OH, catalog no. 882470), and counted with a Beckman Coulter LS6500, and the mean activity per cell was determined (efficiency, 50% as per prior studies). Aliquots of about 5×10^5 cells were counted in triplicate for ^210Po activity and the cpm ranged from 10^3-10^5. The triplicate measurements kept statistical variations to a minimum. Each sample was serially diluted and plated in Falcon 60×15 mm tissue culture dishes for colony formation. Cultures were incubated for 7 days, and the colonies were fixed in 95% ethanol, stained with 0.01% Amido Black, washed in tap-water, air-dried, and counted.
After conditioning, the cell cultures were treated with daunomycin (Sigma, catalog no. D8809) or doxorubicin (Sigma, catalog no. 44583) to a final concentration of 0-10 μmol/L in MEMB. The tubes were returned to the rocker-roller for 2.5 h. The cells were then processed for colony formation as described above.
To evaluate cytotoxicity of combined treatment of V79 cells with ^210Po-citrate and daunomycin, or ^210Po-citrate and doxorubicin, the surviving fraction of clonogens was plotted as a function of mean cellular uptake of ^210Po (FIG. 9) and as a function of mean absorbed dose to the cell nucleus. When cells were only treated with ^210Po-citrate, the survival curve can be described by a 1-component exponential function. When cells were concomitantly treated with a single drug concentration and varying amounts of ^210Po-citrate, the dose-response curves followed a 2-component exponential function. The data corresponding to the combined treatments were then corrected for drug toxicity, by dividing the surviving fraction for each datum point by the surviving fraction for drug alone (SF=0.10), and replotted in FIG. 9. Both of the corrected cell survival curves emerged below those obtained for ^210Po-citrate alone.

Where [1] appears, read: 0.63 μM daunomycin + 210Po-citrate.

Take `COc1cccc2c1C(=O)c1c(O)c3c(c(O)c1C2=O)C[C@@](O)(C(=O)CO)C[C@@H]3O[C@H]1C[C@H](N)[C@H](O)[C@H](C)O1` [doxorubicin]: the “effect on radiotoxicity of 210Po-citrate α-particles” value is listed as “enhance the radiotoxicity of α-particles”. Further, the “dose dependence of the increased kill” value (2.50 μM doxorubicin + 210Po-citrate) is on record as “dose-dependent increase”.

With `COc1cccc2c1C(=O)c1c(O)c3c(c(O)c1C2=O)C[C@@](O)(C(C)=O)C[C@@H]3O[C@H]1C[C@H](N)[C@H](O)[C@H](C)O1` [daunomycin], the “effect on radiotoxicity of 210Po-citrate α-particles” value is on record as “enhance the radiotoxicity of α-particles”. In addition, under setting [1], the “absorbed dose beyond which the enhancement was independent of dose” value is on record as “about 0.5 Gy” and the “cellular activity beyond which the enhancement was independent of dose” value was around 0.09 mBq/cell.
